Earlier results, collected in patent US20060183185A1, “Method for the synthesis of astaxanthin” (priority 2004, published 2006).

Conditions: liposome systems; appropriate dose

In the case of CC1=C(/C=C/C(C)=C/C=C/C(C)=C/C=C/C=C(C)/C=C/C=C(C)/C=C/C2=C(C)C(=O)C(O)CC2(C)C)C(C)(C)CC(O)C1=O (stereo not shown) [astaxanthin], the “suppression of the peroxyl radical chain reaction” value is given as “completely suppress”.
